Results as given in US10227331B2 (priority 2015, dated 2019).

Tests used:
NDM-1 = NDM-1 (Klebsiella pneumoniae, UniProt C7C422); experiment: biochemical; assay type: biochemical; conditions: CCF2-FA substrate, 2 hours at 25° C; read-out: NDM-1 IC50
Procedure, shortened: (§1)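 Inhibitor was mixed with the metallo-β-lactamase and CCF2-FA. After 2 hours at 25° C, fluorescence of the coumarin–fluorescein cephalosporin substrate was read. IC50 was calculated with a 4-parameter fit.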

IMP-1 = IMP-1 (Serratia marcescens, UniProt P52699); experiment: biochemical; assay type: biochemical; conditions: CCF2-FA substrate, 2 hours at 25° C; read-out: IMP-1 IC50
Sequence of IMP-1 (P52699 whole entry, looked up, species assumed): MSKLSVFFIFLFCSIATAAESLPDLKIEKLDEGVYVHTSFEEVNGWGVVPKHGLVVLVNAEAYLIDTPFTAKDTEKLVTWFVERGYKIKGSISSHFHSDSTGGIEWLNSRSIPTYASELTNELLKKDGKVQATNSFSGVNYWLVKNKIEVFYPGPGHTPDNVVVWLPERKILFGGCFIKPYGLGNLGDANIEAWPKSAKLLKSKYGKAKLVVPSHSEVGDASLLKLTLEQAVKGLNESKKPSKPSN
Procedure, shortened: as §1

[1] = tested on: P. aeruginosa expressing IMP-1, efflux− (MB9799); experiment: Efflux: concentration of MBL inhibitor which restores susceptibility to imipenem; assay type: cell-based, Pseudomonas aeruginosa; conditions: imipenem at 2 μg/mL, in the presence of a class A, C, D serine β-lactamase inhibitor closely related to relebactam
Text: (§2) The strain background is Pseudomonas aeruginosa PAO1.

VIM-1 = VIM-1 (Pseudomonas aeruginosa (strain ATCC 15692 / DSM 22644 / CIP 104116 / JCM 14847 / LMG 12228 / 1C / PRS 101 / PAO1), UniProt A0A0F7KYQ8); experiment: biochemical; conditions: CCF2-FA substrate, 2 hours at 25° C
Procedure, shortened: as §1

[2] = tested on: P. aeruginosa expressing IMP-1, efflux+ (MB9798); assay type: cell-based, Pseudomonas aeruginosa; conditions: for P. aeruginosa expressing IMP-1, efflux+ (MB9798) MITC95: imipenem at 2 μg/mL, in the presence of a class A, C, D serine β-lactamase inhibitor closely related to relebactam; for Efflux ratio: ratio MITC95 PA_9798/MITC95 PA_9799
Text: as §2

[3] = tested on: Escherichia coli expressing NDM-1 (CLB30005, CLB30016); assay type: cell-based; conditions: with imipenem 1 μg/ml, 95% inhibition of bacterial growth; for Escherichia coli MITC95: NDM-1 (CLB30016)
Procedure, shortened: (§3)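 Colonies from overnight 35 °C blood-agar cultures were suspended in saline, diluted 1:100 into 1.1× CAMHB and exposed to test compound with or without imipenem at 1 μg/ml. After 22–24 h at 35 °C, absorbance was read to find the concentration restoring imipenem susceptibility.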

[4] = tested on: Serratia marcescens expressing IMP-1 (CL5741); assay type: cell-based; conditions: with imipenem 1 μg/ml, 95% inhibition of bacterial growth; for Serratia marcescens MITC95: IMP-1 (CL5741)
Procedure, shortened: as §3

[5] = tested on: Klebsiella pneumoniae expressing VIM-1 (IHMA599644); assay type: cell-based; conditions: with imipenem 1 μg/ml, 95% inhibition of bacterial growth; for Klebsiella pneumoniae MITC95: VIM-1 (IHMA599644)
Procedure, shortened: as §3

Sequence of NDM-1 (C7C422 whole entry, looked up, species assumed): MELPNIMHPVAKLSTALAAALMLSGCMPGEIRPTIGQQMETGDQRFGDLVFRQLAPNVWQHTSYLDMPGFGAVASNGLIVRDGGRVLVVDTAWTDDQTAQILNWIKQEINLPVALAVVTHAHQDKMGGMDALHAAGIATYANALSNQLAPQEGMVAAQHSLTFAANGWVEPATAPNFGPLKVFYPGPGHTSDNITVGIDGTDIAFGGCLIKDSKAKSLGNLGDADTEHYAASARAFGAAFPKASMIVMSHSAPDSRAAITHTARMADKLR

SMILES | IC50 (NDM-1) [nM] | IC50 (IMP-1) [nM] | P. aeruginosa expressing IMP-1, efflux− (MB9799) MITC95 [1] [µM] | IC50 (VIM-1) [nM] | P. aeruginosa expressing IMP-1, efflux+ (MB9798) MITC95 [2] [µM] | Efflux ratio [2] | Escherichia coli MITC95 [3] [µM] | Serratia marcescens MITC95 [4] [µM] | Klebsiella pneumoniae MITC95 [5] [µM] | Escherichia coli expressing NDM-1 (CLB30016) MITC95 [3] [µM] | Serratia marcescens expressing IMP-1 (CL5741) MITC95 [4] [µM] | Klebsiella pneumoniae expressing VIM-1 (IHMA599644) MITC95 [5] [µM]
Nc1nc2c(-c3ccc(S(=O)(=O)CCN4CCOCC4=O)c(S(N)(=O)=O)c3-c3nn[nH]n3)cccc2s1 [Example 259, 3-(2-aminobenzo[d]thiazol-4-yl)-6-((2-(3-oxomorpholino)ethyl)sulfonyl)-2-(2H-tetrazol-5-yl)benzenesulfonamide] | 0.167 | 0.349 | 6.25 | 0.245 | 12.5 | 2.00 | 25 | 12.5 | 25 |  |  | 
NCCS(=O)(=O)c1ccc(-c2ccc(CO)nc2)c(-c2nnn[nH]2)c1S(N)(=O)=O.O=C(O)C(F)(F)F [Example 145, 2-((4-(6-(hydroxymethyl)pyridin-3-yl)-2-sulfamoyl-3-(1H-tetrazol-5-yl)phenyl)sulfonyl)ethanaminium 2,2,2-trifluoroacetate] | 4.31 | 4.84 | 1.563 | 1.25 | 12.5 | 8.00 |  |  |  | 1.563 | 3.125 | 6.25
N#Cc1cc(-c2ccc(S(=O)(=O)C3CNC3)c(S(N)(=O)=O)c2-c2nnn[nH]2)c2[nH]c(N)nc2c1 [Example 261, 3-(2-amino-5-cyano-1H-benzo[d]imidazol-7-yl)-6-(azetidin-3-ylsulfonyl)-2-(1H-tetrazol-5-yl) benzenesulfonamide] | 0.4 | 1.15 | 6.25 | 0.734 | 6.25 | 1.00 | 6.25 | 6.25 | 12.5 |  |  | 
NCCS(=O)(=O)c1ccc(-c2cccc(S(=O)(=O)NC3CC3)c2)c(-c2nnn[nH]2)c1S(N)(=O)=O.O=C(O)C(F)(F)F [Example 161, 2-((3′-(N-cyclopropylsulfamoyl)-3-sulfamoyl-2-(1H-tetrazol-5-yl)-[1,1′-biphenyl]-4-yl)sulfonyl)ethanaminium 2,2,2-trifluoroacetate] | 3.47 | 1.69 | 1.563 | 3.04 | 50 | 31.99 |  |  |  | 6.25 | 6.25 | 12.5
Cn1nc(N)c2c(-c3ccc(S(=O)(=O)C4CNC4)c(S(N)(=O)=O)c3-c3nnn[nH]3)cccc21 [Example 265, 3-(3-amino-1-methyl-1H-indazol-4-yl)-6-(azetidin-3-ylsulfonyl)-2-(1H-tetrazol-5-yl) benzenesulfonamide] | 0.168 | 1.49 | 1.563 | 0.239 | 6.25 | 4.00 | 3.125 | 1.563 | 6.25 |  |  | 
NCCS(=O)(=O)c1ccc(-c2ccnc(N)c2)c(-c2nnn[nH]2)c1S(N)(=O)=O.O=C(O)C(F)(F)F [Example 141, 2-((4-(2-aminopyridin-4-yl)-2-sulfamoyl-3-(1H-tetrazol-5-yl)phenyl)sulfonyl)ethanaminium 2,2,2-trifluoroacetate] | 4.32 | 4.89 | 0.8906 | 1.01 | 6.25 | 7.02 |  |  |  | 0.25 | 0.8906 | 1.781
NS(=O)(=O)c1c(S(=O)(=O)C2CNC2)ccc(C2=CCS(=O)(=O)CC2)c1-c1nn[nH]n1 [Example 218, 6-(azetidin-3-ylsulfonyl)-3-(1,1-dioxido-3,6-dihydro-2H-thiopyran-4-yl)-2-(2H-tetrazol-5-yl) benzenesulfonamide] | 1.75 | 3.55 | 1.563 | 2.23 | 12.5 | 8.00 |  |  |  | 0.3906 | 1.563 | 3.125
NS(=O)(=O)c1c(S(=O)(=O)C2CNC2)ccc(-c2cncc3[nH]c(=O)[nH]c23)c1-c1nnn[nH]1 [Example 301, 6-(azetidin-3-ylsulfonyl)-3-(2-oxo-2,3-dihydro-1H-imidazo[4,5-c]pyridin-7-yl)-2-(1H-tetrazol-5-yl)benzenesulfonamide] | 0.536 | 2.87 | 1.563 | 0.96 | 3.125 | 2.00 | 0.7813 | 3.125 | 6.25 |  |  | 
NCc1nc2c(-c3ccc(S(=O)(=O)C[C@@H](O)CN)c(S(N)(=O)=O)c3-c3nn[nH]n3)cccc2[nH]1 [Example 369, (S)-6-((3-amino-2-hydroxypropyl)sulfonyl)-3-(2-(aminomethyl)-1H-benzo[d]imidazol-4-yl)-2-(2H-tetrazol-5-yl) benzenesulfonamide] | 0.973 | 3.57 | 0.7813 | 0.401 | 0.7813 | 1.00 | 0.7813 | 0.7813 | 1.563 |  |  | 
NCCS(=O)(=O)c1ccc(-c2cccc3[nH]c([C@H](N)CNC(=O)C(F)(F)F)nc23)c(-c2nn[nH]n2)c1S(N)(=O)=O [Example 328, (R)—N-(2-Amino-2-(4-(4-((2-aminoethyl)sulfonyl)-3-sulfamoyl-2-(2H-tetrazol-5-yl)phenyl)-1H-benzo[d]imidazol-2-yl)ethyl)-2,2,2-trifluoroacetamide] | 1.3 | 3.42 | 1.563 | 0.474 | 3.125 | 2.00 | 1.563 | 3.125 | 3.125 |  |  | 
NCCS(=O)(=O)c1ccc(-c2cccc(NC(=O)CN)c2)c(-c2nn[nH]n2)c1S(N)(=O)=O [Example 333, 2-Amino-N-(4′-((2-aminoethyl)sulfonyl)-3′-sulfamoyl-2′-(2H-tetrazol-5-yl)-[1,1′-biphenyl]-3-yl)acetamide] | 3.44 | 10.3 | 0.7813 | 0.312 | 6.25 | 8.00 | 0.3906 | 1.563 | 1.563 |  |  | 
